Assay [1] relates to Trichinella spiralis. The assay is described as follows: Percent reduction of viability of Trichinella spiralis muscle larvae at a concentration of 3*10e-3 uM; No reduction observed. In kind it is functional, organism-based.
Assay [2] is filed under the species Rattus norvegicus. As to the kind of experiment: Tested for inhibition of tubulin polymerization in rat brain at a concentration of 0.024 uM. In kind it is functional.
The subject of assay [3] is Trichinella spiralis. The assay is described as follows: Percent reduction of viability of Trichinella spiralis muscle larvae at a concentration of 3*10e-5 uM; No reduction observed. The assay is classed as functional, organism-based.
A further assay has as its system Giardia intestinalis. As to the kind of experiment: In vitro antiprotozoal activity against Giardia lamblia. The assay is classed as functional, organism-based. Particulars: Giardia duodenalis.
For assay [4], the species on record is Rattus norvegicus. As to the kind of experiment: Tested for inhibition of tubulin polymerization in rat brain at a concentration of 0.015 uM. The assay is classed as functional.
For assay [5], the species on record is Rattus norvegicus. The assay is described as follows: Tested for inhibition of tubulin polymerization in rat brain at a concentration of 3*10e-5 uM. In kind it is functional.
Assay [6] has as its system Trichinella spiralis. As to the kind of experiment: Percent reduction of viability of Trichinella spiralis muscle larvae at a concentration of 3*10e-6 uM; No reduction observed. The assay is classed as functional, organism-based.
The subject of assay [7] is Trichinella spiralis. As to the kind of experiment: Percent reduction of viability of Trichinella spiralis muscle larvae at a concentration of 3*10e-4 uM; No reduction observed. In kind it is functional, organism-based.
The next assay concerns Entamoeba histolytica. The assay is described as follows: In vitro antiprotozoal activity against Entamoeba histolytica. In kind it is functional, organism-based.
The species entered for assay [8] is Rattus norvegicus. As to the kind of experiment: Tested for inhibition of tubulin polymerization in rat brain at a concentration of 3*10e-3 uM. The assay is classed as functional.
Assay [9] has as its system Trichinella spiralis. As to the kind of experiment: Percent reduction of viability of Trichinella spiralis muscle larvae at a concentration of 3*10e-3 uM. The assay is classed as functional.
The test system of assay [10] is Trichinella spiralis. The assay is described as follows: Percent reduction of viability of Trichinella spiralis muscle larvae at a concentration of 3*10e-5 uM. The assay is classed as functional.
Assay [11] deals with Trichinella spiralis. The assay is described as follows: Percent reduction of viability of Trichinella spiralis muscle larvae at a concentration of 3*10e-4 uM. In kind it is functional.
Assay [12] relates to Trichinella spiralis. The assay is described as follows: Percent reduction of viability of Trichinella spiralis muscle larvae at a concentration of 3*10e-6 uM. The assay is classed as functional.

pIC50: −log10 of the molar value.

By pIC50 is commonly meant the IC50 on a negative log10 scale, so that one unit is a factor of ten. Turning to `FC(F)(F)c1nc2cc(Cl)ccc2[nH]1`, the Reduction entry in the assay on Trichinella spiralis [1], in the assay with Trichinella spiralis [3], in the assay with Trichinella spiralis [6] and with Trichinella spiralis [7] was “No reduction” in each case. Besides, the Viscosity in the assay filed under Rattus norvegicus [2] came to 6.47; in the assay filed under Rattus norvegicus [4], 7.14; in the assay filed under Rattus norvegicus [5], 6.59; in the assay filed under Rattus norvegicus [8] it was 6.7. In addition, the pIC50 in the assay on Giardia intestinalis was 5.89; in the assay on Entamoeba histolytica it was 7.66.
`CCCSc1ccc2[nH]c(NC(=O)OC)nc2c1` [ALBENDAZOLE]: the Reduction with Trichinella spiralis [9] is listed as 30%; in the assay with Trichinella spiralis [10], 13%; in the assay on Trichinella spiralis [11], 20%; with Trichinella spiralis [12] it was 6%. For the same compound, the pIC50 in the assay on Giardia intestinalis is 7.43; in the assay on Entamoeba histolytica, 4.25. In addition, the Viscosity in the assay filed under Rattus norvegicus [5] was found to be 7.04; in the assay listed under Rattus norvegicus [8] it was 2.07.
Consider `FC(F)(F)c1nc2ccccc2[nH]1`, for which the Viscosity in the assay filed under Rattus norvegicus [2] was determined as 6.92; in the assay filed under Rattus norvegicus [4], 7.34; in the assay listed under Rattus norvegicus [5], 7.55; in the assay filed under Rattus norvegicus [8] it was 7.56. Besides, the Reduction is 9% with Trichinella spiralis [9], 1% in the assay with Trichinella spiralis [10], 3% in the assay with Trichinella spiralis [11] and “No reduction” in the assay with Trichinella spiralis [6]. Further, the pIC50 in the assay on Giardia intestinalis is 6.97; with Entamoeba histolytica, 7.16.
Take `Cn1c(C(F)(F)F)nc2ccccc21`: the Viscosity in the assay filed under Rattus norvegicus [2] turned out to be 7.16; in the assay filed under Rattus norvegicus [4], 7.31; in the assay filed under Rattus norvegicus [5], 6.68; in the assay filed under Rattus norvegicus [8], 7.41. For the same compound, the Reduction in the assay with Trichinella spiralis [9] is 12%; in the assay with Trichinella spiralis [10], 1%; in the assay with Trichinella spiralis [11], 9%; with Trichinella spiralis [6] it was “No reduction”. In addition, the results for the pIC50 in the assay with Giardia intestinalis and in the assay on Entamoeba histolytica were 7.19 and 7.40, respectively.
In the case of `Cn1c(C(F)(F)F)nc2cc(Cl)ccc21`, the Viscosity in the assay listed under Rattus norvegicus [2] came out at 7.54; in the assay listed under Rattus norvegicus [4], 6.94; in the assay listed under Rattus norvegicus [5], 7.3; in the assay listed under Rattus norvegicus [8] it was 7.58. Besides, the Reduction in the assay on Trichinella spiralis [9] turned out to be 39%; in the assay on Trichinella spiralis [10], 9%; in the assay with Trichinella spiralis [11], 16%; with Trichinella spiralis [12], 2%. Besides, the negative logarithm of the IC50 (pIC50) was 7.38 in the assay on Giardia intestinalis and 7.34 with Entamoeba histolytica.
Regarding `Cc1ncc([N+](=O)[O-])n1CCO` [METRONIDAZOLE], the pIC50 with Giardia intestinalis is 5.91; with Entamoeba histolytica, 6.46.
In the case of `FC(F)(F)c1nc2cc(Cl)c(Cl)cc2[nH]1`, the Viscosity in the assay listed under Rattus norvegicus [2] is reported as 7.22; in the assay filed under Rattus norvegicus [4] it was 6.68; in the assay filed under Rattus norvegicus [5], 7; in the assay filed under Rattus norvegicus [8] it was 7.03. Moreover, the Reduction was 19% with Trichinella spiralis [9], 1% in the assay on Trichinella spiralis [10], 9% in the assay on Trichinella spiralis [11] and “No reduction” in the assay with Trichinella spiralis [6]. For the same compound, the pIC50 in the assay on Giardia intestinalis was 7.11; in the assay on Entamoeba histolytica, 7.96.
As to `Cn1c(C(F)(F)F)nc2cc(Cl)c(Cl)cc21`, the Viscosity in the assay filed under Rattus norvegicus [2] was found to be 6.94; in the assay listed under Rattus norvegicus [4], 6.63; in the assay filed under Rattus norvegicus [5] it was 6.93; in the assay filed under Rattus norvegicus [8] it was 7.63. The Reduction with Trichinella spiralis [9] worked out at 15%; in the assay on Trichinella spiralis [10] it was 4%; in the assay with Trichinella spiralis [11], 9%; with Trichinella spiralis [12], 2%. Moreover, the pIC50 in the assay with Giardia intestinalis is 6.59; with Entamoeba histolytica, 7.48.
For `Cn1c(C(F)(F)F)nc2ccc(Cl)cc21`, the Reduction result with Trichinella spiralis [1], in the assay with Trichinella spiralis [3], in the assay with Trichinella spiralis [6] and in the assay with Trichinella spiralis [7] was “No reduction” throughout. In addition, the Viscosity in the assay listed under Rattus norvegicus [2] was found to be 7.26; in the assay filed under Rattus norvegicus [4], 7.07; in the assay filed under Rattus norvegicus [5], 6.44; in the assay filed under Rattus norvegicus [8] it was 7.39. Besides, the pIC50 in the assay with Giardia intestinalis was 6.90; in the assay on Entamoeba histolytica, 8.10.

(Values after ChEMBL document CHEMBL1133780, “Synthesis and antiparasitic activity of 2-(trifluoromethyl)-benzimidazole derivatives” (Bioorg Med Chem Lett, 2001).)
